According to ChEMBL document CHEMBL5537197, “Discovery of Novel Coumarin-quinolinium Derivatives as Pan-KRAS Translation Inhibitors by Targeting 5'-UTR RNA G-Quadruplexes” (J Med Chem, 2024):
Calls of active or inactive are those of the source. The rule behind the calls is not given here.

What was measured:
[1] = Cytotoxicity against human PANC-1 cells […] assessed as cell growth inhibition incubated for 24 hrs by MTT assay; assay type: functional, cell-based; settings: PANC-1, 24 h
PANC-1 [2] = experiment: Cytotoxicity against human PANC-1 cells overexpressing KRAS G12D mutant assessed as cell death incubated for 24 hrs by MTT assay; assay type: functional, cell-based
SW-620 = experiment: Cytotoxicity against human SW620 cells harboring KRAS G12V mutant assessed as cell growth inhibition incubated for 24 hrs by MTT assay; assay type: functional, cell-based; settings: SW-620, 24 h
HCT-116 = experiment: Cytotoxicity against human HCT-116 cells harboring KRAS G13D mutant assessed as cell growth inhibition incubated for 24 hrs by MTT assay; assay type: functional, cell-based; settings: HCT-116, 24 h
NCI-H358 = experiment: Cytotoxicity against human NCI-H358 cells harboring KRAS G12C mutant assessed as cell growth inhibition incubated for 24 hrs by MTT assay; assay type: functional, cell-based; settings: NCI-H358, 24 h
U-87 MG = experiment: Cytotoxicity against human U-87 MG cells harboring wild-type KRAS assessed as cell growth inhibition incubated for 24 hrs by MTT assay; assay type: functional, cell-based, U-87MG ATCC
[3] = Cytotoxicity against human HFL1 cells harboring wild-type KRAS assessed as cell growth inhibition incubated for 24 hrs by MTT assay; assay type: toxicity, cell-based
[4] = tested on: GTPase KRas (Homo sapiens), P01116 [G12C]; experiment: Inhibition of KRAS G12C mutant in human MIA PaCa-2 cells incubated for 24 hrs by Western blot analysis; assay type: cell-based; settings: dose <= 5.0 µM
GTPase KRas (Homo sapiens), P01116 [G12C], sequence (P01116 whole entry G12C): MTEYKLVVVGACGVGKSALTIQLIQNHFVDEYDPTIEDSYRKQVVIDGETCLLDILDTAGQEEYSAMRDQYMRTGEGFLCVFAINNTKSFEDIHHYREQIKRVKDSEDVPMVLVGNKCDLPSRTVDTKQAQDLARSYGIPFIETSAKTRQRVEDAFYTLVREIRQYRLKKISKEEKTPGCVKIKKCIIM

[5] = tested on: GTPase KRas (Homo sapiens), P01116 [G12D]; experiment: Inhibition of KRAS G12D mutant in human PANC-1 cells at 2.5 uM by Western blot analysis; assay type: cell-based; settings: time <= 48.0 hrs, TDE = time-dependent effect
GTPase KRas (Homo sapiens), P01116 [G12D], sequence (P01116 whole entry G12D, looked up): as the sequence (P01116 whole entry G12C) above, with C12D counted along it

PANC-1 [6] = experiment: Effect on NRAS level in human PANC-1 cells harboring KRAS G12D mutant at 1.25 to 5 uM by Western blot analysis; assay type: functional, cell-based; settings: dose 1.25-5 µM
MIA PaCa-2 [7] = experiment: Effect on KRAS mRNA level in human MIA PaCa-2 cells harboring KRAS G12C mutant at upto 5 uM incubated upto 48 hrs by RT-qPCR analysis; assay type: functional, cell-based
Quadruplex DNA [8] = experiment: Binding affinity to KRAS utr-1 G-Quadruplex (unknown origin) assessed as dissociation constant by fluorescence spectroscopy; assay type: nucleic-acid assay
Quadruplex DNA [9] = experiment: Binding affinity to HP12 G-Quadruplex (unknown origin) assessed as dissociation constant by fluorescence spectroscopy; assay type: nucleic-acid assay
Quadruplex DNA [10] = experiment: Disruption of DHX36/KRAS rG-Quadruplex (unknown origin) by ELISA; assay type: nucleic-acid assay; settings: dose 20.0 µM
[11] = target: GTPase KRas (Homo sapiens) (UniProt P01116); experiment: Inhibition of KRAS in human MIA PaCa-2 cells assessed as decrease in total protein level at 1.25 to 5 uM incubated for 24 hrs by Western blot analysis; assay type: cell-based; settings: dose 1.25-5 µM
GTPase KRas (Homo sapiens), sequence (P01116 whole entry, looked up): as the sequence (P01116 whole entry G12C) above, with C12G counted along it

[12] = target: GTPase KRas (Homo sapiens) (UniProt P01116); experiment: Inhibition of KRAS in human MIA PaCa-2 cells assessed as decrease in MEK phosphorylation incubated for 24 hrs by Western blot analysis; assay type: cell-based; settings: dose 1.25-5 µM
[13] = target: GTPase KRas (Homo sapiens) (UniProt P01116); experiment: Inhibition of KRAS in human MIA PaCa-2 cells assessed as decrease in ERK phosphorylation incubated for 24 hrs by Western blot analysis; assay type: cell-based; settings: dose 1.25-5 µM
[14] = target: GTPase KRas (Homo sapiens) (UniProt P01116); experiment: Inhibition of KRAS in human MIA PaCa-2 cells assessed as decrease in AKT phosphorylation at 2.5 uM by Western blot analysis; assay type: cell-based; settings: time <= 24.0 hrs, TDE = time-dependent effect
[15] = target: GTPase KRas (Homo sapiens) (UniProt P01116); experiment: Inhibition of KRAS in human MIA PaCa-2 cells assessed as decrease in mTOR phosphorylation at 2.5 uM by Western blot analysis; assay type: cell-based; settings: time <= 24.0 hrs, TDE = time-dependent effect
MIA PaCa-2 [16] = experiment: Effect on total protein level in human MIA PaCa-2 cells at 2.5 uM incubated for upto 24 hrs by Western blot analysis; assay type: functional, cell-based
MIA PaCa-2 [17] = experiment: Induction of cell cycle arrest at G2/M phase in human MIA PaCa-2 cells incubated for 24 hrs by PI staining based HCS analysis; assay type: functional; settings: dose 1.25-5 µM
MIA PaCa-2 [18] = experiment: Antitumor activity against human MIA PaCa-2 cells xenografted in BALB/C-nu/nu mouse model assessed as decrease of tumor volume administered intraperitoneally everyday for 18 days; assay type: functional, cell-based; settings: dose 2.5-5 mg/kg, route ip, time 18.0 day
MIA PaCa-2 [19] = experiment: Antitumor activity against human MIA PaCa-2 cells xenografted in BALB/C-nu/nu mouse model assessed as tumor growth inhibition at 2.5 mg/kg,ip everyday for 18 days relative to control; assay type: functional; settings: MIA PaCa-2, 432 h, time 18 day, read-out: TGI
MIA PaCa-2 [20] = experiment: In vivo inhibition of KRAS in human MIA PaCa-2 cells xenografted in BALB/C-nu/nu mouse model at 2.5 to 5 mg/kg,ip everyday for 18 days by IHC analysis; assay type: functional, organism-based; settings: dose 2.5-5 mg/kg, time 18.0 day
MIA PaCa-2 [21] = experiment: In vivo inhibition of KRAS in human MIA PaCa-2 cells xenografted in BALB/C-nu/nu mouse model at 2.5 to 5 mg/kg,ip everyday for 18 days by Western blot analysis; assay type: functional, organism-based; settings: dose 2.5-5 mg/kg, time 18.0 day

Q: What does the source list for `CCN(CC)c1ccc2cc(/C=C/c3ccc4cc(F)c(NCCN5CCCC5)cc4[n+]3C)c(=O)oc2c1.[I-]`?
A: IC50 [1]: > 40 µM; Activity (PANC-1 [2]): inactive; IC50 (SW-620): 5.1 µM; IC50 (HCT-116): 4 µM; IC50 (NCI-H358): 4.8 µM; IC50 (U-87 MG): > 40 µM; IC50 at 24 h [3]: > 40 µM; inhibition [4]: Dose-Dependent Effect; inhibition [5]: Tde; Activity (PANC-1 [6]): inactive; Activity (MIA PaCa-2 [7]): inactive; Kd (Quadruplex DNA [8]): 0.9 µM; Kd (Quadruplex DNA [9]): > 5 µM; Activity (Quadruplex DNA [10]): Dose-Dependent Effect; inhibition [11]: Active; inhibition [12]: Dose-Dependent Effect; inhibition [13]: Dose-Dependent Effect; inhibition [14]: Tde; inhibition [15]: Tde; Activity (MIA PaCa-2 [16]): inactive; Activity (MIA PaCa-2 [17]): Dose-Dependent Effect; Activity (MIA PaCa-2 [18]): Dose-Dependent Effect; inhibition in vivo at 2.5 mg/kg (MIA PaCa-2 [19]): 62%; Activity (MIA PaCa-2 [20]): Active; Activity (MIA PaCa-2 [21]): Active
